Source: the OligoGym collection
These antisense oligonucleotides have a phosphorothioate backbone; sugars and methylation of C are not fully specified.

Target: PRKAR2A
Details: ASO
Further: test concentration or dose not given here.

Sequence | remaining target (mRNA or protein) (fraction of control)
AAGGAGAATATCTTTGCAAG | ≥ 1
AATGCCCATAACCACAGCAA | 0.39
AGGCGGGTGAAGTACTCCAC | 0.46
ATAACTAAGCATTTGACATC | 0.94
ATCTGGATGTGGCTCATGCC | 0.82
ATCTGTATCTTCCTCTTCCT | 0.73
ATGTGGCTCATGCCGGCGGC | 0.95

Target: CHEK2
Details: ASO

Sequence | remaining target (mRNA or protein) (fraction of control)
AAACTTTCTCTTCATGTCTT | ≥ 1
AACATCCGACTCCCGAGACA | 0.65
AACTTCTTGACAAGGTCCAG | 0.8
AAGGCTTCTTCTGTCGTAAA | 0.96
AAGGGCCCATAATCGAGCCC | 0.78
AATCCGAAAGTGTTTCTTGC | ≥ 1
AGAATAACTCCTAAACTCCA | 0.82
AGCAGTCCCAACAGAAACAA | 0.95
AGGAATAGAATAGAGTTCCT | ≥ 1
ATTCTCTGGCTTTAAGTCAC | 0.63
ATTTCTGCTTAGTGACAGTG | 0.65
CAGAGTGAAAGAAGGACATT | ≥ 1
CAGTAGTTGTCATTCACACA | 0.49
CAGTGTCCCAGAGCTGGAGT | ≥ 1
CATGAGAGAGGTCTCTCCCA | 0.85
CCACGGAGTTCACAACACAG | 0.74
CCATCAATTCCAAAACAATA | ≥ 1
CCATTGCCACTGTGATCTTC | 0.46
CGTGCTGGTAGAGGAGCTGG | 0.77
CTCTCGAAAGCCAGCTTTAC | 0.31

Sequence | remaining target (mRNA or protein) (fraction of control)
CTTGGGACTGGGTAACGCTG | 0.93
GAAGCCACGGGTGTCTTAAG | 0.86
GACGGCGTTTTCCTTTCCCT | 0.49
GACTTCAGGAATGAAGTTGT | ≥ 1
GAGAGCTGGGTCTGCCTCTC | 0.73
GTACTGCACAGCCAAGAGCA | 0.79
GTAGAGCTGTGGATTCATTT | 0.67
TAATCTTTATAAGACAGTCC | 0.88
TATTCATCTCTTAATGCCTT | 0.61
TATTCCATAATTAAATCCAA | ≥ 1
TCAGCAGTGGTTCATCAAAG | 0.63
TCAGTGACACTTGAGTCCTA | 0.87
TCCACAGCACGGTTATACCC | 0.28
TCCTTTTGCTGATGATCTTT | 0.57
TGAGATGACAGTAAAACATT | ≥ 1
TGTTCAAACCACGGAGTTCA | 0.62
TTCTCTGAGACTTCTGCCCA | 0.49
TTTATTCCCCACCACTTTGT | 0.38
TTTGTGGTCTCGGCACCCTC | 0.77
TTTTAATCTTGATGATGCAA | 0.71

Target: RIPK2
Details: ASO

Sequence | remaining target (mRNA or protein) (fraction of control)
TGAAATTCATTGTCCAATAA | 0.99
TGCATAGCTATATATATCGT | 0.77
TGGTCCCGGGCGCTCAGGCC | 0.23
TTACATGCTTTTATTTTGAA | 0.5
TTATCTGCAAAGGATTGGTG | 0.45
TTCATGGTCCCGGGCGCTCA | 0.53
TTTCCTATGTAGGAGTTCAT | ≥ 1
